Results as given in patent publication US11708562B2, “Differentiation of human embryonic stem cells” (Janssen Biotech, Inc., priority 2006, dated 2023).

Tests used:
[1] = tested on: H9P49 and H1P46 embryonic stem cells; test: Definitive endoderm on MATRIGEL: effective dose of activin A with GSK-3B inhibitor or Wnt-3A; assay type: cell-based, human
Excerpt: FIGS. 31A, 31B, 31C and 31D is for H9P49 cells and FIGS. 31E and 31F is for H1P46 cells.

H9 cultures = test: Definitive endoderm on varying concentrations of […] with Wnt-3a (real-time PCR); assay type: cell-based, human; conditions: low serum, 100 ng/ml activin A and 20 ng/ml Wnt-3a
Protocol: H9 cells were cultured on plates coated with regular […] at a 1:60 to 1:10 dilution. The plates were coated with […] for 1 hr at room temperature.

## Activin A: a member of the TGFβ superfamily; growth factor (R&D Systems) used to differentiate human embryonic stem cells
[1]
  lineage formed at lower doses of activin A: formation of extraembryonic endoderm
H9 cultures
  expression of CXCR4, GATA4, Goosecoid, HNF-3beta, and SOX-17 genes: led to the expression
